Results: ChEMBL document CHEMBL1201862, “PubChem BioAssay data set” (2004)
Values joined by “and” are separate entries in the source; they are usually repeats but may differ in a detail not shown here. Equal values may be shown once. Active and inactive are the calls of the source.

Legend:
Estrogen receptor beta [1] = target: T1, Estrogen receptor beta (Homo sapiens, UniProt Q92731); assay: blockers of SRC-3 recruitment to ERβ – biochemical, ELISA, streptavidin-HRP readout, orthogonal assay, confirmation (AID 1060)
Ephrin type-A receptor 4 = Ephrin type-A receptor 4 (Mus musculus, UniProt Q03137); assay: EphA4 ligand-binding antagonists – biochemical, colorimetric, mouse EphA4, primary screen (AID 689); assay type: functional
[2] = target: T2, Induced myeloid leukemia cell differentiation protein Mcl-1 (Homo sapiens, UniProt Q07820); assay type: functional
Vero = assay: mammalian cell viability reduction – secondary assay, cytotoxicity control for West Nile virus antiviral project, dose response (AID 1650); assay type: functional; conditions: Chlorocebus sabaeus
[3] = target: Solute carrier family 12 member 2/member 5 (Homo sapiens, UniProt P55011+Q9H2X9); assay: KCC2 and NKCC1 inhibition by rubidium flux, cell-based, NKCC1 counter-screen (AID 1734); assay type: functional, HEK293
[4] = target: T3, Tyrosine-protein phosphatase non-receptor type 7 (Homo sapiens, UniProt P35236); assay: HePTP tyrosine phosphatase activity blockers – biochemical, absorbance, leukemia target, primary screen (AID 521); assay type: functional
T3 sequence (P35236 whole entry): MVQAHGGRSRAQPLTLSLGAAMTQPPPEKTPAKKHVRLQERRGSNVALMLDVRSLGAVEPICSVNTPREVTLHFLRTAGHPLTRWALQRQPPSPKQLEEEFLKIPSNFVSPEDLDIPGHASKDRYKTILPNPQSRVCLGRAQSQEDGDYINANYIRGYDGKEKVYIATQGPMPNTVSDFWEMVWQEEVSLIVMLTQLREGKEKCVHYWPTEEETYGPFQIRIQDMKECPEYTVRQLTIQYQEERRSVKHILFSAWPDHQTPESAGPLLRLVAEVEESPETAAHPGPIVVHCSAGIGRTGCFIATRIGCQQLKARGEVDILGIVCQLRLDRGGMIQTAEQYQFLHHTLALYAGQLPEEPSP

Bcl-2-like protein 10 = target: T4, Bcl-2-like protein 10 (Homo sapiens, UniProt Q9HD36); assay: Bcl-B/TR3 peptide binding disruption – biochemical, fluorescence polarization, FITC-TR3 peptide, selectivity assay for Bfl-1 inhibitor project, primary screen (AID 748);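 further: fluorescence polarization from a fluorescein-labelled TR3 peptide binding purified Bcl-B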
T4 sequence (Q9HD36 whole entry): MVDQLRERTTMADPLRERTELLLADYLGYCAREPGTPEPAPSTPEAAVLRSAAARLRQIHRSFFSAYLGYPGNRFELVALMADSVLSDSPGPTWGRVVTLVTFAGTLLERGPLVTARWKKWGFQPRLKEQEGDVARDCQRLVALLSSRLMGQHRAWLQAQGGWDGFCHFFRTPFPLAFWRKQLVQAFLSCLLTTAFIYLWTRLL

[5] = target: T2, Induced myeloid leukemia cell differentiation protein Mcl-1; assay: blockers of MCL1 binding to BIM peptide – biochemical, fluorescence polarization, BIM-BH3 peptide, 1536-well, dose response (AID 2217)
Estrogen receptor beta [6] = target: T1, Estrogen receptor beta
Bcl-2-like protein 1 = Bcl-2-like protein 1 (Homo sapiens, UniProt Q07817); assay: blockers of BCLXL peptide binding – biochemical, fluorescence polarization, 1536-well, selectivity assay for MCL1 inhibitor project, dose response (AID 2218)
[7] = target: T5, Dual specificity protein phosphatase 6 (Rattus norvegicus, UniProt Q64346); assay: inhibition of rat DUSP6 enzyme activity – biochemical, in vitro, primary screen (AID 425)
T5 sequence (Q64346 whole entry): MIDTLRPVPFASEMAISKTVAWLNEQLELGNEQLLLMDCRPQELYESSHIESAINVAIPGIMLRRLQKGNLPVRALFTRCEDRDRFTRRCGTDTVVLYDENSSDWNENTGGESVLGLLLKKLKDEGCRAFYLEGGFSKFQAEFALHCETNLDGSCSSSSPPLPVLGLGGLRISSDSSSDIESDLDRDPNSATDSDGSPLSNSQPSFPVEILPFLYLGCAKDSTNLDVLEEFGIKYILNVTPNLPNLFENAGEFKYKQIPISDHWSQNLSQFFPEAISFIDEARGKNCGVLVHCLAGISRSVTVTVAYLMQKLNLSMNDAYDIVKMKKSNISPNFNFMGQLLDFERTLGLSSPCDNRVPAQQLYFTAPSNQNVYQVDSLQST

Bcl-2-related protein A1 [8] = target: T6, Bcl-2-related protein A1 (Mus musculus, UniProt Q07440); assay: displacement of Bid BH3 peptide from Bfl-1 – biochemical, fluorescence polarization, FITC-Bid, mouse, primary screen (AID 432)
T6 sequence (Q07440 whole entry): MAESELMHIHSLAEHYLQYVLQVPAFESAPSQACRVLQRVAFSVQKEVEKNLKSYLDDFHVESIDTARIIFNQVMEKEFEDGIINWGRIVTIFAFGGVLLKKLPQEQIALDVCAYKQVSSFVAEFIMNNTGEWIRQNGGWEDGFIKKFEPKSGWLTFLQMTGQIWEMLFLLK

[9] = target: Glyceraldehyde-3-phosphate dehydrogenase (Homo sapiens, UniProt P04406)
Bcl-2-related protein A1 [10] = target: T6, Bcl-2-related protein A1; assay: small-molecule antagonists of Bfl-1/BH3 interaction – biochemical, TR-FRET, mouse Bfl-1, confirmation (AID 621);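 further: TR-FRET binding of GST-Bfl-1 to FITC-labelled Bid peptide via terbium antibody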
Bcl-2-related protein A1 [11] = target: T6, Bcl-2-related protein A1; assay: Bfl-1 binding inhibitors, SAR follow-up, biochemical, fluorescence polarization (AID 1070)
[12] = Luminescence Cell-Based Dose Retest to Confirm Inhibitors of Cancer Stem Cells. [Related pubchem assays (depositor defined):AID2717, AID2721]; assay type: functional; conditions: Homo sapiens
CHO = CHO cell viability loss, potency – luminescence, cytotoxicity control for TLR9-MyD88 binding inhibitor project, dose response (AID 588339); assay type: functional, cell-based, hamster; conditions: Cricetulus griseus;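 further: CHO cells stably coexpressing TLR9 and MyD88 fusions from primary screen; compound exposure lasted 48 hours before viability readout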
[13] = target: T7, Replicative DNA helicase DnaB (Mycobacterium tuberculosis, UniProt P9WMR3); assay: DnaB intein splicing inhibitors, dose response, biochemical, cell-free fluorescence (AID 449749); assay type: functional
T7 sequence (P9WMR3 whole entry): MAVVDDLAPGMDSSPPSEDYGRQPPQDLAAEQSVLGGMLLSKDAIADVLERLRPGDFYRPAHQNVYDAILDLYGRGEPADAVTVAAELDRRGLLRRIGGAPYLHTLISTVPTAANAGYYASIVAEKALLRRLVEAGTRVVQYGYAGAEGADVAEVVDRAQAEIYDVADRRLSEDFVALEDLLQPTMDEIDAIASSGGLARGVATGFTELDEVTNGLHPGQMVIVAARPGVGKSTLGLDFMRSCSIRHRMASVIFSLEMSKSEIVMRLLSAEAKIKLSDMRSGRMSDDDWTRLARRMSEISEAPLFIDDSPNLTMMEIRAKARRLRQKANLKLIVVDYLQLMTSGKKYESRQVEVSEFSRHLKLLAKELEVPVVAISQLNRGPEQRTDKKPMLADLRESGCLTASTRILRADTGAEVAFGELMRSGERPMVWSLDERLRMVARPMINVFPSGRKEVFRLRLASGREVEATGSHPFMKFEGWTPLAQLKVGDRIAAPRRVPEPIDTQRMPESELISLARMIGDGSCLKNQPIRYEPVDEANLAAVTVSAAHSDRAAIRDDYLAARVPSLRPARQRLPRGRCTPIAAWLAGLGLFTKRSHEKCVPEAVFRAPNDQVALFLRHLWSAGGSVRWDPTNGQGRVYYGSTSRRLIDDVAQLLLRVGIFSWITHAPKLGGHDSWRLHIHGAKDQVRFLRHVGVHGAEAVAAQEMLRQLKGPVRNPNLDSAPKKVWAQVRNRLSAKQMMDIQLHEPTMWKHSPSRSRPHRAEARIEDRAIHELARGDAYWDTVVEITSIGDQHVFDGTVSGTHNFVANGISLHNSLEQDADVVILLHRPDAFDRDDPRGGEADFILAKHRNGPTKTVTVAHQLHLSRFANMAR

Protein RecA = target: T8, Protein RecA (Mycobacterium tuberculosis, UniProt P9WHJ3); assay: Fluorescence Cell-Free Homogeneous Dose Retest to Identify Inhibitors of RecA-Intein Splicing Activity. [Related pubchem assays (depositor defined):AID2097, AID2223, AID489010, AID492950]; assay type: functional
T8 sequence (P9WHJ3 whole entry): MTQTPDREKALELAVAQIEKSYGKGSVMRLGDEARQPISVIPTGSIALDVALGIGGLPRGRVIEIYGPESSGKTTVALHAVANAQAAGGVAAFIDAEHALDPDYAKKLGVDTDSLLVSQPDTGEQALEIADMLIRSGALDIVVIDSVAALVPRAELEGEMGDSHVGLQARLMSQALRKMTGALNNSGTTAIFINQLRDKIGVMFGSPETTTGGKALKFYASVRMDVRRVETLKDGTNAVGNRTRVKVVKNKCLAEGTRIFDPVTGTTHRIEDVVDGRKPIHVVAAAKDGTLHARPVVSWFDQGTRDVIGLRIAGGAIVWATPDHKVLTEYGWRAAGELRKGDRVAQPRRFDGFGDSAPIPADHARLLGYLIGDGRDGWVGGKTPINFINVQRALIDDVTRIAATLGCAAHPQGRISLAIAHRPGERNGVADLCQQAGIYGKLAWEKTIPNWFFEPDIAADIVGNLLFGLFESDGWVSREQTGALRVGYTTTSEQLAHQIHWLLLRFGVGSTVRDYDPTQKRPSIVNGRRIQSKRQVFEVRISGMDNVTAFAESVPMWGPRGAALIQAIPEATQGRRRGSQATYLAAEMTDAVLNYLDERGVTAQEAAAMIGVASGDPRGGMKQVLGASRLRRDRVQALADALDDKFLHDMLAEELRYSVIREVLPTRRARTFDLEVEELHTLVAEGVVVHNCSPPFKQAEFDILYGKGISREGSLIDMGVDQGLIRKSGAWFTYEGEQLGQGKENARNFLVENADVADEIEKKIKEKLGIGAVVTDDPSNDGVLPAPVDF

Beta Lactamase = Beta Lactamase (Pseudomonas aeruginosa, UniProt Q932Y6); assay: BLA reporter interference, concentration series – BLA reporter cells, FRET fluorescence, artefact control for TLR9-MyD88 binding inhibitor project, dose response (AID 588341); assay type: cell-based;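 further: cell based assay in CHO-K1 cells stably expressing beta-lactamase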
INS1 = assay: INS-1E survival protection against cytokine death – cell-based, luminescence, retest, dose response (AID 449756); assay type: functional; conditions: Rattus norvegicus;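 further: cell death triggered by IL-1 beta plus TNF-alpha plus IFN-gamma mixture; protective hits raise ATP signal compared with cytokine alone wells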
[14] = reduction of Shn3 3'UTR-driven luciferase in osteoblasts – cell-based, Clone20 osteoblasts, firefly luciferase, cherry-picked, dose response (AID 624132); assay type: functional;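 further: firefly luciferase luminescence from reporter carrying the Shn3 3'UTR in osteoblasts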
[15] = loss of viability in HepG2 cells – cell-based, CellTiter-Glo, cherry-picked, cytotoxicity control for Shn3 inhibitor project, dose response (AID 624134); assay type: functional
[16] = non-specific 3'UTR reporter inhibition in Clone20-Shn3RL – cell-based, Renilla luciferase, cherry-picked, counter-screen for Shn3 inhibitor project, dose response (AID 624133); assay type: functional
[17] = reduced cellular PGC1a acetyl-lysine signal – cell-based, cherry-picked samples, dose response (AID 720514); assay type: functional;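 further: potency may reflect raised or lowered acetylation signal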

T1 sequence (Q92731 whole entry): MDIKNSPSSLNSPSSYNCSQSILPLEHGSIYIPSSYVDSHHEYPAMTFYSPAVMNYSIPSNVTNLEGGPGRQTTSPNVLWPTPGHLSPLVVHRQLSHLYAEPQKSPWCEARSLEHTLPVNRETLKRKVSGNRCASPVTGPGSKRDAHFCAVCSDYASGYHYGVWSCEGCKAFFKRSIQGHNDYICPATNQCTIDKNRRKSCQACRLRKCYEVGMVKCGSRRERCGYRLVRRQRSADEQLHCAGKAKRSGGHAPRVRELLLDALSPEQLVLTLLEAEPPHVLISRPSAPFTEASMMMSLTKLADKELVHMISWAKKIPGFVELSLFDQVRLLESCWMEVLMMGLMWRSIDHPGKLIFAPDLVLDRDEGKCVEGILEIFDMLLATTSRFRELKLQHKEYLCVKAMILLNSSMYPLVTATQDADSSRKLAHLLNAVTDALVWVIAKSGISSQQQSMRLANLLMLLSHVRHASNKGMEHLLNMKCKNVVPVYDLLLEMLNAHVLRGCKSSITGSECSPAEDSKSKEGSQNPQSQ
T2 sequence (Q07820 whole entry): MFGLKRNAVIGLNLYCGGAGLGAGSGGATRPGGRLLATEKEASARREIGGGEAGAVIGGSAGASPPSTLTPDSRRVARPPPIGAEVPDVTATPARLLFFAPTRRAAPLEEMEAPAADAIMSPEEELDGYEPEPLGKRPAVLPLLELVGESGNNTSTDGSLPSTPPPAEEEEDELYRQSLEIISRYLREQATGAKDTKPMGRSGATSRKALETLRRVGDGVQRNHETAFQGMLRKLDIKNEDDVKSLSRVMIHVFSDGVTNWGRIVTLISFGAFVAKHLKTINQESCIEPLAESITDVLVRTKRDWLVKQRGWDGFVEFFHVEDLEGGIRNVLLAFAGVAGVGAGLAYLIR
Chain of Beta Lactamase (Q932Y6 whole entry): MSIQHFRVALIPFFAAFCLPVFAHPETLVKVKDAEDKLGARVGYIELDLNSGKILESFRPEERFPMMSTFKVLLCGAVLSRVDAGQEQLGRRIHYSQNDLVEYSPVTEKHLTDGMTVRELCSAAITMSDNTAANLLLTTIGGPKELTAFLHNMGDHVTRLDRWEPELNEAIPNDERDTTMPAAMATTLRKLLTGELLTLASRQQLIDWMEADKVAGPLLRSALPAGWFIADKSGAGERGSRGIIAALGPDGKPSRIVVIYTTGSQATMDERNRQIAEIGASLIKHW
Chain of Glyceraldehyde-3-phosphate dehydrogenase (P04406 whole entry): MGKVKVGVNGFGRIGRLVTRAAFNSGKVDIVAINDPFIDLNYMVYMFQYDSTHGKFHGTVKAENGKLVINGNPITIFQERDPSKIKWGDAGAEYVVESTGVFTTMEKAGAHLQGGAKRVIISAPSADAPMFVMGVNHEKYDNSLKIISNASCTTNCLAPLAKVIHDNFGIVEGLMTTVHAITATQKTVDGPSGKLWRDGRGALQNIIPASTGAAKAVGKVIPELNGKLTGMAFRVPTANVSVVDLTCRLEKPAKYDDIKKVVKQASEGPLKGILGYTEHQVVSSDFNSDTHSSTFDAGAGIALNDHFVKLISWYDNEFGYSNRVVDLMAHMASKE
Chain of Bcl-2-like protein 1 (Q07817 whole entry): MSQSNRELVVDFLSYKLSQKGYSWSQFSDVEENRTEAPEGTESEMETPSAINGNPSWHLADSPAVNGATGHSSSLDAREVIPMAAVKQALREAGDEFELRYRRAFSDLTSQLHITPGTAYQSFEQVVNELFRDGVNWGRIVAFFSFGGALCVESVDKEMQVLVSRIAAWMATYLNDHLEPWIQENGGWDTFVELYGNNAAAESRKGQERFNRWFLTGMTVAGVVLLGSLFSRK
Chain of Ephrin type-A receptor 4 (Q03137 whole entry): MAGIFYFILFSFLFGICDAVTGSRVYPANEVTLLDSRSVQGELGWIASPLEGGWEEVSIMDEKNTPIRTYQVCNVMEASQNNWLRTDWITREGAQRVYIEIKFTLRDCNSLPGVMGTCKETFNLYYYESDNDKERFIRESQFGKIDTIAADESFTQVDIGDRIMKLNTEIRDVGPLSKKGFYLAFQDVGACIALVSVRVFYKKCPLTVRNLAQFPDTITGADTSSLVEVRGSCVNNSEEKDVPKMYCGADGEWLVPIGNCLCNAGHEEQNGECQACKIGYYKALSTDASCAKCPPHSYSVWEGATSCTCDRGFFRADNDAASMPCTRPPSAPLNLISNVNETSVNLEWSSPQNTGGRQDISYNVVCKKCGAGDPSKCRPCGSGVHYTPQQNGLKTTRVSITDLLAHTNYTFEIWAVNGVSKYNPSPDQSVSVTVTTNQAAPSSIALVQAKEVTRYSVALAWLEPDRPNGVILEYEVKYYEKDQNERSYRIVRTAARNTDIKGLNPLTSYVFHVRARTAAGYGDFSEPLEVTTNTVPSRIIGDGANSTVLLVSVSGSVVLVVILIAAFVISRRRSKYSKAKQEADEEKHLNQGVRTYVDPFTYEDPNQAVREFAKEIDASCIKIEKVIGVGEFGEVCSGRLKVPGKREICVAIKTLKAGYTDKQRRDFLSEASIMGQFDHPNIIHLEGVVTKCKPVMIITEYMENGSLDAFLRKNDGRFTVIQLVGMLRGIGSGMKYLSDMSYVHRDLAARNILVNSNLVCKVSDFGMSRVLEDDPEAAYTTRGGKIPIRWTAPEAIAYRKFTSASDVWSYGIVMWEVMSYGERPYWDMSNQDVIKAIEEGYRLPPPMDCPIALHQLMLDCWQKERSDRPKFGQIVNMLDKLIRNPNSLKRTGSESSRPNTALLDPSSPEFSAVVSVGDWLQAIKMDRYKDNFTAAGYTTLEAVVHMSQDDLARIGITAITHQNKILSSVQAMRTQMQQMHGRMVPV

SMILES: Cc1nc(C)c(C(=O)Nc2nc3c(C)cccc3s2)o1
- IC50 (Estrogen receptor beta [1]): 0.588 µM (not active)
- IC50 (Ephrin type-A receptor 4): 11.3 µM (active)
- IC50 [2]: 3.36 µM (active)

SMILES: CC(C)n1nc(C(=O)Nc2cccc(S(=O)(=O)NCc3ccco3)c2)c2ccccc2c1=O
- CC50 (Vero): 3.81 µM (active)

SMILES: Cc1ccc(-c2ccc(S(=O)(=O)NCC3CCCO3)cc2)cc1 (stereo unspecified)
- IC50 [3]: 7.7 µM (active)

SMILES: COC(=O)c1ccccc1NC(=O)c1noc2c1CCC2
- IC50 [4]: 2.33 µM (active)
- IC50 (Bcl-2-like protein 10): 16.5 µM (active)
- IC50 [5]: 13.5 µM (not active)
- IC50 (Estrogen receptor beta [6]): 2.18 µM (active)
- IC50 (Estrogen receptor beta [1]): 9.45 µM (not active)
- IC50 (Bcl-2-like protein 1): > 109 µM (not active)
- IC50 [7]: > 10 µM (not active)

SMILES: CCOC(=O)CS(=O)(=O)c1nc(-c2ccccc2)cc(C(F)(F)F)n1
- IC50 (Bcl-2-related protein A1 [8]): 3.72 µM (active)
- IC50 [9]: > 100 µM (not active)
- IC50 (Bcl-2-related protein A1 [10]): 4.63 µM (active) and 1.18 µM (active)
- IC50 (Bcl-2-related protein A1 [11]): 5.36 µM (active)
- AC50 [12]: 2.77 µM (active)
- IC50 (CHO): 4.43 µM (active)
- AC50 [13]: 2.9 µM (active)
- EC50 (Protein RecA): 4.15 µM (active)
- IC50 (Beta Lactamase): 19.2 µM (inactive)
- AC50 (INS1): 7.22 µM (active)
- AC50 [14]: 3.42 µM (active)
- AC50 [15]: 12.9 µM (active)
- AC50 [16]: 6.93 µM (active)
- AC50 [17]: 6.64 µM (active)
